In paper PMC5218480 (PLoS ONE, 2017):

Tested on: MV-4-11 cells
Assay: Gene expression microarray analysis (Affymetrix PrimeView) and GSEA
Type: cell-based, human
Parameters: RFU PODN (11730768_x_at) / Fold change /veh PODN (11730768_x_at) / RFU LINC00158 (11744669_a_at) / Fold change /veh LINC00158 (11744669_a_at) / RFU DUSP10 (11751237_a_at) / Fold change /veh DUSP10 (11751237_a_at) / RFU ID3 (11757404_x_at) / Fold change /veh ID3 (11757404_x_at) / RFU PLEKHG5 (11737974_s_at) / Fold change /veh PLEKHG5 (11737974_s_at) / RFU LRRC4B (11730491_at) / Fold change /veh LRRC4B (11730491_at) / RFU GIMAP4 (11747438_a_at) / Fold change /veh GIMAP4 (11747438_a_at) / RFU KRT8 (11758183_x_at) / Fold change /veh KRT8 (11758183_x_at) / RFU CNN1 (11734310_a_at) / Fold change /veh CNN1 (11734310_a_at) / RFU VPS37D (11726825_at) / Fold change /veh VPS37D (11726825_at) / RFU C10orf10 (11716522_x_at) / Fold change /veh C10orf10 (11716522_x_at) / RFU KIR2DL2 /// KIR2DL4 /// KIR2DL5A /// KIR2DL5B /// KIR2DS1 /// KIR2DS2 /// KIR2DS3 /// KIR2DS4 /// KIR3DL3 /// KIR3DL3 /// KIR3DS1 (11738374_at) / Fold change /veh KIR2DL2 /// KIR2DL4 /// KIR2DL5A /// KIR2DL5B /// KIR2DS1 /// KIR2DS2 /// KIR2DS3 /// KIR2DS4 /// KIR3DL3 /// KIR3DL3 /// KIR3DS1 (11738374_at) / RFU C1QL1 (11718748_at) / Fold change /veh C1QL1 (11718748_at) / RFU TMPRSS4 (11747572_a_at) / Fold change /veh TMPRSS4 (11747572_a_at) / RFU HAMP (11756126_x_at) / Fold change /veh HAMP (11756126_x_at) / RFU RNFT2 (11725882_a_at) / Fold change /veh RNFT2 (11725882_a_at) / RFU NR4A2 (11747474_a_at) / Fold change /veh NR4A2 (11747474_a_at) / RFU ABCC12 (11746883_a_at) / Fold change /veh ABCC12 (11746883_a_at) / RFU TMEM136 (11760407_x_at) / Fold change /veh TMEM136 (11760407_x_at) / RFU CLDN22 /// WWC2 (11732394_at) / Fold change /veh CLDN22 /// WWC2 (11732394_at) / RFU HLA-DPB1 (11760878_x_at) / Fold change /veh HLA-DPB1 (11760878_x_at) / RFU SPINT1 (11716480_a_at) / Fold change /veh SPINT1 (11716480_a_at) / RFU GAP43 (11754022_s_at) / Fold change /veh GAP43 (11754022_s_at) / RFU A4GNT (11735810_at) / Fold change /veh A4GNT (11735810_at) / RFU PRB3 (11715151_x_at) / Fold change /veh PRB3 (11715151_x_at) / RFU TUBB4B (11761932_at) / Fold change /veh TUBB4B (11761932_at) / RFU CAPN14 (11732068_a_at) / Fold change /veh CAPN14 (11732068_a_at) / RFU TMCC2 (11721928_a_at) / Fold change /veh TMCC2 (11721928_a_at) / RFU IRGQ (11745062_a_at) / Fold change /veh IRGQ (11745062_a_at) / RFU FAM174B (11720279_a_at) / Fold change /veh FAM174B (11720279_a_at) / RFU TMPRSS4 (11748680_a_at) / Fold change /veh TMPRSS4 (11748680_a_at) / RFU FAM212B (11763350_a_at) / Fold change /veh FAM212B (11763350_a_at) / RFU PLEKHG5 (11743358_a_at) / Fold change /veh PLEKHG5 (11743358_a_at) / RFU ZSCAN30 (11745921_a_at) / Fold change /veh ZSCAN30 (11745921_a_at) / RFU CMKLR1 (11741424_a_at) / Fold change /veh CMKLR1 (11741424_a_at) / RFU LOC101060620 /// MAPK8IP1 (11723275_at) / Fold change /veh LOC101060620 /// MAPK8IP1 (11723275_at) / RFU SPTSSB (11747773_x_at) / Fold change /veh SPTSSB (11747773_x_at) / RFU PRSS12 (11739890_at) / Fold change /veh PRSS12 (11739890_at) / RFU BIN1 (11741810_x_at) / Fold change /veh BIN1 (11741810_x_at) / RFU WNT11 (11732464_a_at) / Fold change /veh WNT11 (11732464_a_at) / RFU C10orf10 (11716521_a_at) / Fold change /veh C10orf10 (11716521_a_at) / RFU C5orf56 (11738089_at) / Fold change /veh C5orf56 (11738089_at) / RFU CYB561 (11721691_x_at) / Fold change /veh CYB561 (11721691_x_at) / RFU ANKRD19P (11752326_a_at) / Fold change /veh ANKRD19P (11752326_a_at) / RFU OR2T12 /// OR2T33 /// OR2T8 (11738714_s_at) / Fold change /veh OR2T12 /// OR2T33 /// OR2T8 (11738714_s_at) / RFU VCAN (11748164_a_at) / Fold change /veh VCAN (11748164_a_at) / RFU JSRP1 (11732532_at) / Fold change /veh JSRP1 (11732532_at) / RFU KRTAP10-11 (11738290_x_at) / Fold change /veh KRTAP10-11 (11738290_x_at) / RFU MYO3A (11730013_a_at) / Fold change /veh MYO3A (11730013_a_at) / RFU EBF3 (11725865_a_at) / Fold change /veh EBF3 (11725865_a_at) / RFU CAMK2N1 (11719241_x_at) / Fold change /veh CAMK2N1 (11719241_x_at) / RFU C5orf56 (11738088_a_at) / Fold change /veh C5orf56 (11738088_a_at) / RFU OLFML3 (11715873_a_at) / Fold change /veh OLFML3 (11715873_a_at) / RFU LOC100653217 /// NTM (11731650_a_at) / Fold change /veh LOC100653217 /// NTM (11731650_a_at) / RFU MAPK11 (11762145_a_at) / Fold change /veh MAPK11 (11762145_a_at) / RFU FIZ1 (11724087_x_at) / Fold change /veh FIZ1 (11724087_x_at) / RFU OASL (11726364_x_at) / Fold change /veh OASL (11726364_x_at) / RFU SOX15 (11748057_x_at) / Fold change /veh SOX15 (11748057_x_at) / RFU CD79A (11719716_a_at) / Fold change /veh CD79A (11719716_a_at) / RFU HIST1H1D (11736915_at) / Fold change /veh HIST1H1D (11736915_at) / RFU CASKIN2 (11723855_a_at) / Fold change /veh CASKIN2 (11723855_a_at) / RFU LOC730098 (11760151_x_at) / Fold change /veh LOC730098 (11760151_x_at) / RFU OR4N2 (11742367_at) / Fold change /veh OR4N2 (11742367_at) / RFU PRRT2 (11749266_a_at) / Fold change /veh PRRT2 (11749266_a_at) / RFU SNX32 (11753110_a_at) / Fold change /veh SNX32 (11753110_a_at) / RFU CDHR5 (11726645_a_at) / Fold change /veh CDHR5 (11726645_a_at) / RFU RCAN1 (11760418_a_at) / Fold change /veh RCAN1 (11760418_a_at) / RFU FAM167A (11723789_a_at) / Fold change /veh FAM167A (11723789_a_at) / RFU FAM26E (11764081_at) / Fold change /veh FAM26E (11764081_at) / RFU ISYNA1 (11749810_s_at) / Fold change /veh ISYNA1 (11749810_s_at) / RFU ACY1 (11761880_at) / Fold change /veh ACY1 (11761880_at) / RFU 11764098_at / Fold change /veh 11764098_at / RFU SAMD14 (11745864_x_at) / Fold change /veh SAMD14 (11745864_x_at) / RFU NPB (11741838_a_at) / Fold change /veh NPB (11741838_a_at) / RFU TMPRSS6 (11731388_a_at) / Fold change /veh TMPRSS6 (11731388_a_at) / RFU KRTAP10-2 (11738614_at) / Fold change /veh KRTAP10-2 (11738614_at) / RFU ARHGAP8 /// PRR5-ARHGAP8 (11727945_x_at) / Fold change /veh ARHGAP8 /// PRR5-ARHGAP8 (11727945_x_at) / RFU KRTAP5-7 /// NADSYN1 (11734609_at) / Fold change /veh KRTAP5-7 /// NADSYN1 (11734609_at) / RFU RASL12 (11751679_a_at) / Fold change /veh RASL12 (11751679_a_at) / RFU CDKN2B (11736163_a_at) / Fold change /veh CDKN2B (11736163_a_at) / RFU PRF1 (11729649_at) / Fold change /veh PRF1 (11729649_at) / RFU, ZNF638 /// ZNF638-IT1 / Fold change vs veh, ZNF638 /// ZNF638-IT1 / RFU, PANK3 / Fold change vs veh, PANK3 / RFU, SH3YL1 / Fold change vs veh, SH3YL1 / RFU, ZEB2 / Fold change vs veh, ZEB2 / RFU, NRIP1 / Fold change vs veh, NRIP1 / RFU, PTTG1IP / Fold change vs veh, PTTG1IP / RFU, CAPN2 / Fold change vs veh, CAPN2 / RFU, MED14 / Fold change vs veh, MED14 / RFU, SNORA58 / Fold change vs veh, SNORA58 / RFU, C1orf63 / Fold change vs veh, C1orf63 / RFU, LRRFIP1 / Fold change vs veh, LRRFIP1 / RFU, NDUFAF7 / Fold change vs veh, NDUFAF7 / RFU, SLC12A2 / Fold change vs veh, SLC12A2 / RFU, IBTK / Fold change vs veh, IBTK / RFU, ESF1 / Fold change vs veh, ESF1 / Fold change vs veh, TMEM50B / RFU, TAOK1 / Fold change vs veh, TAOK1 / RFU, ACBD3 / Fold change vs veh, ACBD3 / RFU, TMA16 / Fold change vs veh, TMA16 / RFU, RWDD3 / Fold change vs veh, RWDD3 / RFU, BCAT1 / Fold change vs veh, BCAT1 / RFU, EDEM3 / Fold change vs veh, EDEM3 / RFU, TMEM33 / Fold change vs veh, TMEM33 / RFU, WDR75 / Fold change vs veh, WDR75 / RFU, AHCTF1 / Fold change vs veh, AHCTF1 / RFU, TFRC / Fold change vs veh, TFRC / RFU, ZDHHC17 / Fold change vs veh, ZDHHC17 / RFU, NOM1 / Fold change vs veh, NOM1 / RFU, ARL8B / Fold change vs veh, ARL8B / RFU, ZBTB11 / Fold change vs veh, ZBTB11 / RFU, TAMM41 / Fold change vs veh, TAMM41 / RFU, KIAA1704 /// LOC100996395 / Fold change vs veh, KIAA1704 /// LOC100996395 / RFU, ING1 / Fold change vs veh, ING1 / RFU, TRMT61B / Fold change vs veh, TRMT61B / RFU, FUBP3 / Fold change vs veh, FUBP3 / RFU, TP53 / Fold change vs veh, TP53 / RFU, TNKS2 / Fold change vs veh, TNKS2 / RFU, ZFP14 / Fold change vs veh, ZFP14 / RFU, ACTR2 / Fold change vs veh, ACTR2 / RFU, PPP3R1 / Fold change vs veh, PPP3R1 / RFU, PIK3R1 / Fold change vs veh, PIK3R1 / RFU, HNRNPA1 / Fold change vs veh, HNRNPA1 / RFU, RNF170 / Fold change vs veh, RNF170 / RFU, ZNF28 / Fold change vs veh, ZNF28 / RFU, RNGTT / Fold change vs veh, RNGTT / RFU, OGT / Fold change vs veh, OGT / RFU, BRD1 / Fold change vs veh, BRD1 / RFU, MARS / Fold change vs veh, MARS / RFU, ZNF655 / Fold change vs veh, ZNF655 / RFU, FAHD1 / Fold change vs veh, FAHD1 / RFU, BDP1 / Fold change vs veh, BDP1 / RFU, LRRCC1 / Fold change vs veh, LRRCC1 / RFU, ARID1A / Fold change vs veh, ARID1A / RFU, ZNF146 / Fold change vs veh, ZNF146 / RFU, ZNF330 / Fold change vs veh, ZNF330 / RFU, GPN3 / Fold change vs veh, GPN3 / RFU, C9orf123 / Fold change vs veh, C9orf123 / RFU, N4BP2L2 / Fold change vs veh, N4BP2L2 / RFU, ARFIP1 / Fold change vs veh, ARFIP1 / RFU, FAM179B / Fold change vs veh, FAM179B / RFU, BCL10 / Fold change vs veh, BCL10 / RFU, UHRF1BP1L / Fold change vs veh, UHRF1BP1L / RFU, BET1 / Fold change vs veh, BET1 / RFU, CNOT2 / Fold change vs veh, CNOT2 / RFU, ZNF268 / Fold change vs veh, ZNF268 / Fold change vs veh, ZNF507 / RFU, DGCR2 / Fold change vs veh, DGCR2 / RFU, WDSUB1 / Fold change vs veh, WDSUB1 / Fold change vs veh, HSP90B1 /// MIR3652 / RFU, ADSS / Fold change vs veh, ADSS / RFU, GK / Fold change vs veh, GK / RFU, ZNF148 / Fold change vs veh, ZNF148 / RFU, TAF9 / Fold change vs veh, TAF9 / RFU, SLC1A5 / Fold change vs veh, SLC1A5 / RFU, SLMO2 / Fold change vs veh, SLMO2 / RFU, ABCC4 / Fold change vs veh, ABCC4 / RFU, LOC101060439 /// RAP1B / Fold change vs veh, LOC101060439 /// RAP1B / RFU, RFX7 / Fold change vs veh, RFX7 / RFU, GTPBP10 / Fold change vs veh, GTPBP10 / RFU, CNEP1R1 / Fold change vs veh, CNEP1R1 / RFU, BIVM-ERCC5 /// ERCC5 / Fold change vs veh, BIVM-ERCC5 /// ERCC5 / RFU, ILF3 / Fold change vs veh, ILF3 / RFU 11762660_at / Fold change /veh 11762660_at / RFU VCAN (11757783_s_at) / Fold change /veh VCAN (11757783_s_at) / RFU DDX43 (11728927_at) / Fold change /veh DDX43 (11728927_at) / RFU KRT8 (11758188_x_at) / Fold change /veh KRT8 (11758188_x_at) / RFU NKD1 (11759106_at) / Fold change /veh NKD1 (11759106_at) / RFU SRD5A1 (11742802_a_at) / Fold change /veh SRD5A1 (11742802_a_at) / RFU TPSAB1 /// TPSB2 (11721975_s_at) / Fold change /veh TPSAB1 /// TPSB2 (11721975_s_at) / RFU GSTM3 (11746129_a_at) / Fold change /veh GSTM3 (11746129_a_at) / RFU IL23R (11737362_x_at) / Fold change /veh IL23R (11737362_x_at) / RFU TMEM51 (11727254_a_at) / Fold change /veh TMEM51 (11727254_a_at) / RFU PIWIL2 (11732686_x_at) / Fold change /veh PIWIL2 (11732686_x_at) / RFU ORM1 (11744905_x_at) / Fold change /veh ORM1 (11744905_x_at) / RFU CCDC152 (11743942_at) / Fold change /veh CCDC152 (11743942_at) / RFU ECM1 (11717891_a_at) / Fold change /veh ECM1 (11717891_a_at) / RFU IL23R (11748794_a_at) / Fold change /veh IL23R (11748794_a_at) / RFU TNFAIP8L3 (11732012_x_at) / Fold change /veh TNFAIP8L3 (11732012_x_at) / RFU MBOAT4 (11741988_at) / Fold change /veh MBOAT4 (11741988_at) / RFU 11764193_at / Fold change /veh 11764193_at / RFU TMEM53 (11763286_at) / Fold change /veh TMEM53 (11763286_at) / RFU MAGEB2 (11727129_at) / Fold change /veh MAGEB2 (11727129_at) / RFU TMEM200A (11744735_a_at) / Fold change /veh TMEM200A (11744735_a_at) / RFU CCDC152 (11751479_a_at) / Fold change /veh CCDC152 (11751479_a_at) / RFU FAM211A (11726209_a_at) / Fold change /veh FAM211A (11726209_a_at) / RFU RGS16 (11746705_a_at) / Fold change /veh RGS16 (11746705_a_at) / RFU VCAN (11755009_s_at) / Fold change /veh VCAN (11755009_s_at) / RFU RHOB (11743442_s_at) / Fold change /veh RHOB (11743442_s_at) / RFU RGS16 (11720943_a_at) / Fold change /veh RGS16 (11720943_a_at) / RFU RGS16 (11720944_at) / Fold change /veh RGS16 (11720944_at) / RFU, VPS4B / Fold change vs veh, VPS4B / RFU, CREB1 / Fold change vs veh, CREB1 / RFU, DNAJC13 / Fold change vs veh, DNAJC13 / RFU, GNAQ / Fold change vs veh, GNAQ / RFU, CDK5R1 / Fold change vs veh, CDK5R1 / RFU, ZRANB3 / Fold change vs veh, ZRANB3 / RFU, CUL4A / Fold change vs veh, CUL4A / RFU, CCNY / Fold change vs veh, CCNY / RFU, UFL1 / Fold change vs veh, UFL1 / RFU, COG3 / Fold change vs veh, COG3 / RFU, DIAPH2 / Fold change vs veh, DIAPH2 / RFU, SKA2 / Fold change vs veh, SKA2 / RFU, AFF3 / Fold change vs veh, AFF3 / RFU, LMF1 / Fold change vs veh, LMF1 / RFU, IPO11 / Fold change vs veh, IPO11 / RFU, DFFB / Fold change vs veh, DFFB / RFU, FOXP1 / Fold change vs veh, FOXP1 / RFU, CARD8 / Fold change vs veh, CARD8 / RFU, STRN3 / Fold change vs veh, STRN3 / RFU, ADK / Fold change vs veh, ADK / RFU, RASSF2 / Fold change vs veh, RASSF2 / RFU, WIPF1 / Fold change vs veh, WIPF1 / RFU, LARP1B / Fold change vs veh, LARP1B / RFU, RASA1 / Fold change vs veh, RASA1 / RFU, RB1 / Fold change vs veh, RB1 / RFU, PPFIA1 / Fold change vs veh, PPFIA1 / RFU, MAT2A / Fold change vs veh, MAT2A / RFU, CCT5 / Fold change vs veh, CCT5 / RFU, WDR92 / Fold change vs veh, WDR92 / RFU, CUX1 / Fold change vs veh, CUX1 / RFU, TTC7A / Fold change vs veh, TTC7A / RFU, TMEM135 / Fold change vs veh, TMEM135 / RFU, DEPTOR / Fold change vs veh, DEPTOR / RFU, CPM / Fold change vs veh, CPM / RFU, DNAJB6 / Fold change vs veh, DNAJB6 / RFU, CACNA2D3 / Fold change vs veh, CACNA2D3 / RFU, DTX4 / Fold change vs veh, DTX4 / RFU, TFCP2 / Fold change vs veh, TFCP2 / RFU, GMCL1 /// GMCL1P1 / Fold change vs veh, GMCL1 /// GMCL1P1 / RFU, AEBP2 / Fold change vs veh, AEBP2 / RFU, SNHG1 /// SNORD22 /// SNORD25 /// SNORD26 /// SNORD27 /// SNORD28 /// SNORD29 /// SNORD31 / Fold change vs veh, SNHG1 /// SNORD22 /// SNORD25 /// SNORD26 /// SNORD27 /// SNORD28 /// SNORD29 /// SNORD31 / Fold change (Aza/veh), C12orf56 (ProbeSet 11735607_a_at) / Fold change (ACY-1035/veh), C12orf56 (ProbeSet 11735607_a_at) / Fold change (Aza/veh), FGFR1OP (ProbeSet 11751329_s_at) / Fold change (ACY-1035/veh), FGFR1OP (ProbeSet 11751329_s_at) / Fold change (Aza/veh), VPS36 (ProbeSet 11739960_a_at) / Fold change (ACY-1035/veh), VPS36 (ProbeSet 11739960_a_at) / RFU SYPL1 (11715823_x_at) / Fold change /veh SYPL1 (11715823_x_at) / RFU IGFBP7 (11715501_s_at) / Fold change /veh IGFBP7 (11715501_s_at) / RFU REEP3 (11722064_at) / Fold change /veh REEP3 (11722064_at) / RFU IGLL1 (11728026_x_at) / Fold change /veh IGLL1 (11728026_x_at): dose or concentration left out as unconfirmed
Details: ProbeSet 11743286_at; LIST D

`Nc1ncn([C@@H]2O[C@H](CO)[C@@H](O)[C@H]2O)c(=O)n1` [azacitidine] was tested, and the “RFU, DTX4” value was 164.39 RFU.
